# Test results published in patent publication US7101878B1 (Agouron Pharmaceuticals, Inc., priority 1998, dated 2006).
# Entries after “also recorded” stand apart in the source; their conditions may differ. Where two headings read alike, the source gives them in different places. Where a SMILES comes first, the peptide text is derived from it. [ ]: non-standard residue; d: D form. The star is where a group is joined. dPhe(4-Cl) = N[C@H](Cc1ccc(Cl)cc1)C(=O)O; d2Nal = N[C@H](Cc1ccc2ccccc2c1)C(=O)O; Lys(iPr) = CC(C)NCCCC[C@H](N)C(=O)O; d3Pal = N[C@H](Cc1cccnc1)C(=O)O; Nicotinoyl = O=C(c1cccnc1)*
# Assays:
# [1] = Metabolism rate, pmol/min/mg at 1 μM, rat female; assay type: in vitro ADME; conditions: 1 μM compound
# [2] = target: T1, bovine GnRH receptor (Bos taurus, UniProt P32236); assay: Radioligand binding, 125I-GnRH-A, bovine pituitary membranes
# T1 construct: membranes were prepared from bovine pituitary; from tissue; host or cells: bovine pituitary
# T1 sequence (P32236 1-328): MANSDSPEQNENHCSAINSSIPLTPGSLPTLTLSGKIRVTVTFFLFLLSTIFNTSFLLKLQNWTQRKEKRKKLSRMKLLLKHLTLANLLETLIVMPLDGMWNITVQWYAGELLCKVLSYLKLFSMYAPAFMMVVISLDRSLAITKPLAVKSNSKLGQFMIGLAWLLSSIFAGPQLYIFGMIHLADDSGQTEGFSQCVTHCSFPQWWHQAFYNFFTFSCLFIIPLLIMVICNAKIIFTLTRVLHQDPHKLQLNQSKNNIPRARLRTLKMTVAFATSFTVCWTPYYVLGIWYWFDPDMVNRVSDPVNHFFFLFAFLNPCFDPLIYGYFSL
# Method in brief: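 Bound label captured on 0.1% polyethyleneimine-treated GF/C filters, washed three times with PBS, counted. IC50 derived; identical set-up for every species.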
# [3] = Metabolism rate, pmol/min/mg at 1 μM, monkey; assay type: in vitro ADME; conditions: 1 μM compound
# [4] = Metabolism rate, pmol/min/mg at 1 μM, dog; assay type: in vitro ADME; conditions: 1 μM compound
# [5] = target: 5-HT2a (Homo sapiens, UniProt P28223); assay: Selectivity: 5-HT2a
# Sequence of 5-HT2a (P28223 whole entry, species assumed): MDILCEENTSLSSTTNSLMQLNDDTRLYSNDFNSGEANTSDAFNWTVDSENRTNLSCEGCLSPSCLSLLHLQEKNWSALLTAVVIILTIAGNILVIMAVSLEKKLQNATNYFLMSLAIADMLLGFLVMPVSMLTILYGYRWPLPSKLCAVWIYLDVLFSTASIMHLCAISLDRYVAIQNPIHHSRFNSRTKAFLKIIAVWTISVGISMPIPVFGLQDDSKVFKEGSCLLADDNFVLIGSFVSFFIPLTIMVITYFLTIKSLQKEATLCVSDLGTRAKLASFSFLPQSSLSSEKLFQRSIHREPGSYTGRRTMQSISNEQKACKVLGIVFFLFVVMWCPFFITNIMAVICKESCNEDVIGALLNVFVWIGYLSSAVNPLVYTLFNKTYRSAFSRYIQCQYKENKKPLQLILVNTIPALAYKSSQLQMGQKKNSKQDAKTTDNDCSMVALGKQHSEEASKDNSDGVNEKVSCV
# [6] = system: LH levels in castrated rats; assay: Castrated male rat model, LH suppression; assay type: in vivo
# Text: Experimental Protocol: Male Sprague-Dawley (225-250 g) rats were castrated and allowed 10 days postoperative recovery. Ten days post castration animals were instrumented with indwelling femoral venous and arterial catheters to facilitate remote infusions and blood sampling. On the day of the experiment, animals were allowed to acclimate to the procedure room while residing in their home cage. Basal blood samples were drawn from all animals. Following basal sampling, either vehicle (10% DMSO, 10% cremophor/saline), Antide (1.0 μg) or compound 11 (10 mg/kg) was administered intravenously. Blood samples were drawn 10, 60, 90, 120, 180, 240 minutes after injections. Blood was centrifuged, serum collected and stored in −70° freezer until assayed. Serum samples were analyzed using DSL-4600 ACTIVE LH coated-tube immunoradiometric assay kit from Diagnostic Systems Laboratories, Inc.
# Surgical removal of the gonads removes circulating testosterone and eliminates the negative feedback of testosterone on the hypothalamus. […] This model seems suitable for evaluating small molecule GnRH antagonists.
# Male Sprague-Dawley ([…]) rats were castrated via the scrotal approach under halothane anesthesia. Animals were allowed 14 days post operative recovery prior to study. Thirteen days following castration, animals were anesthetized with halothane and instrumented with indwelling jugular vein cannula. Details of the cannulation procedure have been described previously {Harms and Ojeda, 1974)}. On study day, animals were allowed to acclimate to the procedure room while residing in their home cage. Basal blood samples were drawn from all animals. Immediately following basal sampling, vehicle or test compounds were administered by various routes. The routes of administration employed were intravenous (iv), intramuscular (im), intraperitoneal (ip), subcutaneous (sc) and oral (po). Blood samples were drawn into heparin containing tubes at multiple time points post treatment. Blood was centrifuged immediately, plasma collected and stored in −20° freezer until assayed. Plasma samples were analyzed using DSL-4600 ACTIVE LH coated-tube immunoradiometric assay kit from Diagnostic Systems Laboratories, Inc.
# Formulation #1 (denoted with superscript 1): 10% DMSO, 10% Cremophor EL and 80% physiological saline.
# Formulation #2 (denoted with superscript 2): 10% Cremophor EL and 90% physiological saline.
# [7] = target: T2, ILRA (CXCR-1) (Homo sapiens, UniProt P25024); assay: Selectivity: ILRA (CXCR-1) / IL8
# T2 sequence (P25024 1-350): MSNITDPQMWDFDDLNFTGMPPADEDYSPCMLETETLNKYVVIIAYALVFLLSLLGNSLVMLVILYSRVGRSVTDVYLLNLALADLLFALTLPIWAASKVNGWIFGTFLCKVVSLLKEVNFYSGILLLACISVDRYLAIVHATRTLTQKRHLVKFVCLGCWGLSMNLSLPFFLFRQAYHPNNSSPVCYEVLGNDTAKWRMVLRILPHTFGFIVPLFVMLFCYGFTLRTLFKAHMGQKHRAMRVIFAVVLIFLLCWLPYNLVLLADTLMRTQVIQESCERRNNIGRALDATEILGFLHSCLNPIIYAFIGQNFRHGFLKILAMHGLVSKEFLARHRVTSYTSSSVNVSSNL
# [8] = target: GLP-1 (Homo sapiens, UniProt P43220); assay: Selectivity: GLP-1
# Sequence of GLP-1 (P43220 24-463): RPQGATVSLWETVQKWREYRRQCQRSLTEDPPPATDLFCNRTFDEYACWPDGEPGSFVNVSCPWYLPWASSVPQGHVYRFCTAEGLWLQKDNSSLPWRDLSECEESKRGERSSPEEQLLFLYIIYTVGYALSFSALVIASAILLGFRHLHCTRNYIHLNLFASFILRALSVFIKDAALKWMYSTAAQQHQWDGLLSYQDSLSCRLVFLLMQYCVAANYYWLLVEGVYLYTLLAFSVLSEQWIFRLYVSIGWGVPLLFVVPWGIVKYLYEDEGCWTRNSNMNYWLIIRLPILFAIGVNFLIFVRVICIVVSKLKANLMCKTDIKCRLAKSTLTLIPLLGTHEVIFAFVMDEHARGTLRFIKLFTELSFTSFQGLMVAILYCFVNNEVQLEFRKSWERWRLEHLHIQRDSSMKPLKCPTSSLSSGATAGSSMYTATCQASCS
# [9] = means ± SE of at least three experiments performed in duplicate, read-out: Bovine IC50
compound,measurement,setting,value
COc1cc(OC)c(NC(=O)c2ccc(Cc3cc(C(C)(C)C)ccc3C)o2)c(OC)c1 [Compound 200],Rat female pmol/min/mg 1 μM,[1],86 pmol/min/mg
Cc1cc2c(cc1Cc1ccc(C(=O)NCc3cccc(CNc4nccc(NCC5CCCO5)n4)c3)o1)C(C)(C)CCC2(C)C (stereo not drawn) [Compound 70],IC50,[2]; read-out: bGnRH IC50,0.043 µM
COc1cc(OC)c(NC(=O)c2ccc(Cc3cc4c(cc3OC)C(C)(C)CCC4(C)C)o2)c(OC)c1 [Compound 169],Monkey pmol/min/mg 1 μM,[3],5940 pmol/min/mg
same,Dog pmol/min/mg 1 μM,[4],2301 pmol/min/mg
same,Ki,[5],2.71 µM
Cc1cc2c(cc1Cc1ccc(C(=O)NCc3cccc(CNc4ccnc(NC[C@@H]5CCCO5)n4)c3)o1)C(C)(C)CCC2(C)C [Compound 136],Monkey pmol/min/mg 1 μM,[3],5959 pmol/min/mg
same,% Max LH Suppression,[6]; 5.0 mg/kg iv,48%
same,time of % Max LH Suppression,[6]; 5.0 mg/kg iv,1 h
same,≧50% Suppression Duration,[6]; 5.0 mg/kg iv,1.0 h
same,% Max LH Suppression,[6]; 10 mg/kg iv,74%
same,time of % Max LH Suppression,[6]; 10 mg/kg iv,2 h
same,≧50% Suppression Duration,[6]; 10 mg/kg iv,6 h
same,% Max LH Suppression,[6]; 20 mg/kg iv,98%
same,time of % Max LH Suppression,[6]; 20 mg/kg iv,4 h
same,≧50% Suppression Duration,[6]; 20 mg/kg iv,≧6 hr
same,Range of Plasma Conc.,[6]; 20 mg/kg po,0.29 µM
same,Range of Plasma Conc.,[6]; 40 mg/kg po,0.72 µM
same,Dog pmol/min/mg 1 μM,[4],3071 pmol/min/mg
same,Rat female pmol/min/mg 1 μM,[1],271 pmol/min/mg
COc1cc(OC)c(NC(=O)c2ccc(Cc3cc4c(cc3C)CCCC4(C)C)o2)c(OC)c1 [Compound 183],% Max LH Suppression,[6]; 10 mg/kg im,58%
same,time of % Max LH Suppression,[6]; 10 mg/kg im,2 h
same,% Max LH Suppression,[6]; 10 mg/kg iv,92%
same,time of % Max LH Suppression,[6]; 10 mg/kg iv,1 h
same,≧50% Suppression Duration,[6]; 10 mg/kg iv,8 h
same,% Max LH Suppression,[6]; 50 mg/kg po,60%
same,time of % Max LH Suppression,[6]; 50 mg/kg po,2 h
same,≧50% Suppression Duration,[6]; 50 mg/kg po,8 h
same,Rat female pmol/min/mg 1 μM,[1],64 pmol/min/mg
COc1cccc(OC)c1NC(=O)c1ccc(Cc2cc3c(cc2C)C(C)(C)CCC3(C)C)o1 [Compound 20],IC50,[7],> 10 µM
same,Ki,[7],> 10 µM
same,IC50,[2]; read-out: bGnRH IC50,0.13 µM
same,IC50,[8],> 10 µM
same,Ki,[8],> 10 µM
same,Ki,[5],2.35 µM
Cc1cc2c(cc1Cc1ccc(C(=O)NC[C@H]3CC[C@H](CNC(=N)N)CC3)o1)C(C)(C)CCC2(C)C [Compound 10],IC50,[7],6.4 µM
same,IC50,[2]; [9],1.5 ± 0.48 µM
same,Ki,[5],1.2 µM
Cc1cc2c(cc1Cc1ccc(C(=O)NC[C@H]3CC[C@H](C(=O)O)CC3)o1)C(C)(C)CCC2(C)C [Compound 12],IC50,[7],> 10 µM
same,IC50,[2]; [9],10.4 ± 3 µM
same,Ki,[5],> 4 µM
Cc1cc2c(cc1Cc1ccc(C(=O)NCC3CCCC(CNc4nccc(NCC5CCCO5)n4)C3)o1)C(C)(C)CCC2(C)C (stereo not drawn) [Compound 11],IC50,[7],> 10 µM
same,IC50,[2]; [9],0.32 ± 0.01 µM
same,IC50,[8],> 10 µM
Cc1cnc(CNC(=O)c2ccc(Cc3cc4c(cc3C)C(C)(C)CCC4(C)C)o2)cn1 [Compound 13],IC50,[7],> 10 µM
same,IC50,[2]; [9],0.53 ± 0.1 µM
same,IC50,[8],> 10 µM
COc1cc(OC)c(NC(=O)c2ccc(Cc3cc4c(cc3C)C(C)(C)CCC4(C)C)o2)c(OC)c1C#N [Compound 177],Monkey pmol/min/mg 1 μM,[3],3120 pmol/min/mg
same,Dog pmol/min/mg 1 μM,[4],2456 pmol/min/mg
"CC(=O)N[C@H](Cc1ccc2ccccc2c1)C(=O)N[C@H](Cc1ccc(Cl)cc1)C(=O)N[C@H](Cc1cccnc1)C(=O)N[C@@H](CO)C(=O)N[C@@H](CCCCNC(=O)c1cccnc1)C(=O)N[C@H](CCCCNC(=O)c1cccnc1)C(=O)N[C@@H](CC(C)C)C(=O)N[C@@H](CCCCNC(C)C)C(=O)N1CCC[C@H]1C(=O)N[C@H](C)C(N)=O [Antide, reference compound] (Ac-[d2Nal][dPhe(4-Cl)][d3Pal]SK(Nicotinoyl)[dK](Nicotinoyl)L[Lys(iPr)]P[dA]-NH2)",LH in CX rats,"[6]; Antide 2.0 and 20 ug, sc",reduces LH levels; also recorded: suppresses LH
same,LH in castrated rat model,"[6]; intravenous, Antide 1.0 μg, compound 11 10 mg/kg",reduces LH
same,IC50,[2]; [9],0.00015 ± 2e-05 µM
COc1cc(OC)c(NC(=O)c2ccc(Cc3cc4c(cc3C)C(C)(C)CCC4(C)C)o2)c(OC)c1 [Compound 134],Monkey pmol/min/mg 1 μM,[3],9277 pmol/min/mg
same,% Max LH Suppression,[6]; 1.0 mg/kg iv,24%
same,time of % Max LH Suppression,[6]; 1.0 mg/kg iv,0.5 h
same,% Max LH Suppression,[6]; 5.0 mg/kg iv,70%
same,time of % Max LH Suppression,[6]; 5.0 mg/kg iv,0.5 h
same,% Max LH Suppression,[6]; 10 mg/kg iv,100%
same,time of % Max LH Suppression,[6]; 10 mg/kg iv,0.5 h
same,≧50% Suppression Duration,[6]; 10 mg/kg iv,2 h
same,% Max LH Suppression,[6]; 20 mg/kg im,73%
same,LH in CX rats,[6]; 20 mg/kg im,suppresses LH
same,time of % Max LH Suppression,[6]; 20 mg/kg im,2 h
same,≧50% Suppression Duration,[6]; 20 mg/kg im,8 h
same,% Max LH Suppression,[6]; 20 mg/kg ip,80%
same,time of % Max LH Suppression,[6]; 20 mg/kg ip,2 h
same,≧50% Suppression Duration,[6]; 20 mg/kg ip,4 h
same,% Max LH Suppression,[6]; 20 mg/kg po,62%
same,time of % Max LH Suppression,[6]; 20 mg/kg po,4 h
same,≧50% Suppression Duration,[6]; 20 mg/kg po,4 h
same,% Max LH Suppression,[6]; 20 mg/kg sc,53%
same,time of % Max LH Suppression,[6]; 20 mg/kg sc,8 h
same,≧50% Suppression Duration,[6]; 20 mg/kg sc,8 h
same,% Max LH Suppression,[6]; 100 mg/kg im,98%
same,time of % Max LH Suppression,[6]; 100 mg/kg im,2 to 24 h
same,≧50% Suppression Duration,[6]; 100 mg/kg im,24 h
same,% Max LH Suppression,[6]; 100 mg/kg ip,98%
same,time of % Max LH Suppression,[6]; 100 mg/kg ip,4 h
same,≧50% Suppression Duration,[6]; 100 mg/kg ip,8 h
same,% Max LH Suppression,[6]; 100 mg/kg po,84%
same,time of % Max LH Suppression,[6]; 100 mg/kg po,4 h
same,≧50% Suppression Duration,[6]; 100 mg/kg po,8 h
same,% Max LH Suppression,[6]; 100 mg/kg sc,80%
same,time of % Max LH Suppression,[6]; 100 mg/kg sc,6 h
same,≧50% Suppression Duration,[6]; 100 mg/kg sc,8 h
same,LH in CX rats,"[6]; 1.0, 5.0 & 10 mg/kg, iv",dose-dependent suppression of LH
same,LH in CX rats,"[6]; 20 or 100 mg/kg, ip",suppresses LH
same,Dog pmol/min/mg 1 μM,[4],2159 pmol/min/mg
same,Rat female pmol/min/mg 1 μM,[1],94 pmol/min/mg
same,Ki,[5],3.72 µM
Cc1cc2c(cc1Cc1ccc(C(=O)NCc3nc4ccccc4[nH]3)o1)C(C)(C)CCC2(C)C [Compound 48],IC50,[7],> 10 µM
same,% Max LH Suppression,[6]; 10 mg/kg iv,75%
same,time of % Max LH Suppression,[6]; 10 mg/kg iv,0.5 h
same,≧50% Suppression Duration,[6]; 10 mg/kg iv,<1 h
same,% Max LH Suppression,[6]; 20 mg/kg iv,51%
same,time of % Max LH Suppression,[6]; 20 mg/kg iv,1 h
same,≧50% Suppression Duration,[6]; 20 mg/kg iv,1 h
same,IC50,[2]; read-out: bGnRH IC50,0.49 µM
same,Rat female pmol/min/mg 1 μM,[1],135 pmol/min/mg
same,IC50,[8],> 10 µM
